Laboratory results taken from US5620958A, “Bradykinin antagonists” (Coretech, Inc., priority 1994, dated 1997).
Like-named read-outs stand apart in the source and are kept apart here. Peptide text beside a SMILES is read from it.

What was measured:
[1] = biological target: T1, BK2 receptor (Rattus norvegicus, UniProt P25023); assay: cell-based
T1 sequence (P25023 1-396): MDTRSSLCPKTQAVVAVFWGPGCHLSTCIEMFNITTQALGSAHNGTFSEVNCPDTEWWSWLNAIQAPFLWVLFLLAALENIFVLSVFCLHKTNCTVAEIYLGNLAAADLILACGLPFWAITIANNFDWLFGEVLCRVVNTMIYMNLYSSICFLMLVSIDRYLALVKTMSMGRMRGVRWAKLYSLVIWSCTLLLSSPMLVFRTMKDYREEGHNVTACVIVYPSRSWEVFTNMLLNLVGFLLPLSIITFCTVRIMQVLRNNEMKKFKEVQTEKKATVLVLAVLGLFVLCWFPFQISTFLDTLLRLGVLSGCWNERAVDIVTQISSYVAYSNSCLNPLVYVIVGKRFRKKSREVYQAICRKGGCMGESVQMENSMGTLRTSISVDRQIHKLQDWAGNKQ

[2] = biological target: T2, NK2 receptor (Oryctolagus cuniculus, UniProt P79218); assay: rabbit pulmonary artery, reduction of neurokinin A contraction; type: cell-based; details: Table R; negative log of molar concentration reducing sustained neurokinin A contraction by 50%; read-out: NK2 Rabbit Pulm Art log (converted)
T2 construct: reduce a sustained contractile response produced by neurokinin A by 50%; from tissue; host or cells: contractile tissue preparation (rabbit pulmonary artery per the earlier reading)
T2 sequence (P79218 1-384): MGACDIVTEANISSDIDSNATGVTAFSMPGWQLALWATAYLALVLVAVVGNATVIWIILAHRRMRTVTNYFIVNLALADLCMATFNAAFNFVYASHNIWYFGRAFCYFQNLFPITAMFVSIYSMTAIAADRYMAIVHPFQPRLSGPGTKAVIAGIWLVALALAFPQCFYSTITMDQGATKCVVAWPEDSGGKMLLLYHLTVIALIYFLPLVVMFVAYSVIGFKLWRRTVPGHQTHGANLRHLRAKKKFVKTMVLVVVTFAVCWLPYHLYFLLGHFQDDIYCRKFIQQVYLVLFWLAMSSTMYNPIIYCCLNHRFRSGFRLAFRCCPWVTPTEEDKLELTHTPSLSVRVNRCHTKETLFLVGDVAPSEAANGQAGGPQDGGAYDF
Protocol: The heterodimers thus obtained were tested for activity as heretofore described, the results being shown in Table R. In this Table -log [M] represents the negative log of the molar concentration of the antagonist necessary to reduce a sustained contractile response produced by neurokinin A by 50%.

[3] = biological target: T3, BK1 receptor (Oryctolagus cuniculus, UniProt P48748); assay: rabbit aorta in vitro, reversal of des-Arg^9 -BK contraction; type: cell-based; details: for IC50: negative log of molar concentration
T3 construct: when administered to an intact animal; from tissue; host or cells: whole rabbit (systemic arterial blood pressure), LPS-pretreated
T3 sequence (P48748 1-352): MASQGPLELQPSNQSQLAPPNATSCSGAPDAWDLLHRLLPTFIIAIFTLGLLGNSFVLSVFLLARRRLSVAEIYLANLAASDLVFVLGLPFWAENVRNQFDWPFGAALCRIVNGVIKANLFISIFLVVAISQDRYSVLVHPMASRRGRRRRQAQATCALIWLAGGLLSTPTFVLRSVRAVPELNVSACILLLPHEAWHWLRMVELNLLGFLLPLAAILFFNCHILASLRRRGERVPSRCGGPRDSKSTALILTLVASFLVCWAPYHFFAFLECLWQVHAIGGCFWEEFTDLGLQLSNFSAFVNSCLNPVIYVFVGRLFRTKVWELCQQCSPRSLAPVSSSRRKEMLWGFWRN

[4] = biological target: T1, BK2 receptor; details: for BK2 Rat Uterus pA2: Table L
[5] = biological target: T4, BK2 receptor (Cavia porcellus, UniProt O70526); assay: guinea-pig ileum (GPI) in vitro, antagonism of BK; type: cell-based
T4 construct: tested for activity on guinea pig ileum in vitro on the standard tissue bath/strain gauge system; from tissue; host or cells: guinea pig ileum
T4 sequence (O70526 1-372): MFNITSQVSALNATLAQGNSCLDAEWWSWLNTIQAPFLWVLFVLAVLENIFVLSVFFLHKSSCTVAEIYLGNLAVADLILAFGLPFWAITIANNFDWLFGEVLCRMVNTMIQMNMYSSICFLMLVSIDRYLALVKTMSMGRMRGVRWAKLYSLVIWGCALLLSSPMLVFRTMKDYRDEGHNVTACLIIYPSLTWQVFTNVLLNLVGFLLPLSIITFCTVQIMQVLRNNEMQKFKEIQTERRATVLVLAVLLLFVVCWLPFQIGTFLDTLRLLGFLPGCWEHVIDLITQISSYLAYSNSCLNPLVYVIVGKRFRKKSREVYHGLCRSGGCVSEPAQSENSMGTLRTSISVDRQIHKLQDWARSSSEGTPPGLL
Protocol: Thus, in vitro studies were performed on standard assay systems, namely, guinea-pig ileum (GPI), rat uterus (RU) and rabbit jugular vein (RJV). […] The potency of each compound was assessed as a pA2 value according to the method of Arunlakshana & Schild, Br. J. Pharmacol. Chemother., 1.4:48-58 (1959). The pA2 can be defined as the negative logarithm of the molar concentration of the antagonist in the presence of which the potency of the agonist is reduced two-fold, i.e., twice the amount of agonist is required to produce a given response in the presence of, than in the absence of, the antagonist. A high potency of antagonism is indicated by a high pA2 value, i.e., a low concentration of antagonist is effective.
The percentage recovery (% Rec) was also determined for compounds with respect to each assay.
The various compounds identified in Table B below were prepared following the procedure of Example 1 with the Cys moiety introduced into the parent CP-0088 at the position indicated followed by reaction between the sulfhydryl group of the Cys residue and BMH to provide dimers as indicated. The Cys-modified monomers and the resultant dimers were tested for activity on guinea pig ileum in vitro on the standard tissue bath/strain gauge system as before.

CC(C)C[C@H](NC(=O)[C@@H](Cc1ccccc1)NC(=O)[C@H](CSC1CC(=O)N(CCCCCCN2C(=O)CC(SC[C@H](NC(=O)[C@@H](Cc3c[nH]c4ccccc34)NC(=O)[C@@H](NC(=O)[C@@H](Cc3c[nH]c4ccccc34)NC(=O)[C@H](Cc3ccc(O)cc3)NC(=O)[C@@H](N)CC(=O)O)C(C)C)C(=O)N[C@@H](CCCNC(=N)N)C(N)=O)C2=O)C1=O)NC(=O)[C@H](Cc1ccccc1)NC(=O)CNC(=O)[C@@H]1C[C@@H](O)CN1C(=O)[C@@H]1CCCN1C(=O)[C@H](CCCNC(=N)N)NC(=O)[C@H](N)CCCNC(=N)N)C(=O)N[C@@H](CCCNC(=N)N)C(=O)O (some centres unmarked) [CP-0416] (HELM PEPTIDE1{[dR].R.P.[Hyp].G.F.C.[dF].L.R}|PEPTIDE2{D.Y.[dW].V.[dW].C.R.[am]}|CHEM1{[O=C1CC([*:1])C(=O)N1CCCCCCN1C(=O)CC([*:2])C1=O]}$PEPTIDE1,CHEM1,7:R3-1:R1|PEPTIDE2,CHEM1,6:R3-1:R2$$$V2.0; N-terminus assumed)
Kb [1]: 2 nM
IC50 [2]: 2510 nM

CC(C)C[C@H](NC(=O)[C@@H](Cc1ccccc1)NC(=O)[C@H](CSC1CC(=O)N(CCCCCCN2C(=O)CC(SC[C@H](NC(=O)[C@H](Cc3ccccc3)NC(=O)CNC(=O)[C@@H]3C[C@@H](O)CN3C(=O)[C@@H]3CCCN3C(=O)[C@H](CCCNC(=N)N)NC(=O)[C@H](N)CCCNC(=N)N)C(=O)N[C@H](Cc3ccccc3)C(=O)N[C@@H](CC(C)C)C(=O)N[C@@H](CCCNC(=N)N)C(=O)O)C2=O)C1=O)NC(=O)[C@H](Cc1ccccc1)NC(=O)CNC(=O)[C@@H]1C[C@@H](O)CN1C(=O)[C@@H]1CCCN1C(=O)[C@H](CCCNC(=N)N)NC(=O)[C@H](N)CCCNC(=N)N)C(=O)N[C@@H](CCCNC(=N)N)C(=O)O (some centres unmarked) [CP-0127] (HELM PEPTIDE1{[dR].R.P.[Hyp].G.F.C.[dF].L.R}|PEPTIDE2{[dR].R.P.[Hyp].G.F.C.[dF].L.R}|CHEM1{[O=C1CC([*:1])C(=O)N1CCCCCCN1C(=O)CC([*:2])C1=O]}$PEPTIDE1,CHEM1,7:R3-1:R1|PEPTIDE2,CHEM1,7:R3-1:R2$$$V2.0)
BK1 RABBIT AORTA IC50 ([3]; Table G, negative log of molar concentration causing 50% reversal of 10^-7 M des-Arg^9 -BK contraction): Inactive
Kb ([1]; BK2 RAT UTERUS pA2, Table G): 3.16 nM
Kb ([1]; pA2 (UTERUS), Table D, effect of linker length): 1.58 nM
pA2 DIMER ([4]; Table C, rat uterus, P.A. = partial antagonist): 8.8 ± 0.3
GPI pA2 ([5]; Table E): 7.7 ± 0.2

CC(C)C[C@H](NC(=O)[C@@H]1CCCN1C(=O)[C@H](CO)NC(=O)[C@H](Cc1ccccc1)NC(=O)CNC(=O)[C@@H]1C[C@@H](O)CN1C(=O)[C@@H]1CCCN1C(=O)[C@H](CSC1CC(=O)N(CCCCCCN2C(=O)CC(SC[C@H](NC(=O)[C@H](Cc3ccccc3)NC(=O)CNC(=O)[C@@H]3C[C@@H](O)CN3C(=O)[C@@H]3CCCN3C(=O)[C@H](CCCNC(=N)N)NC(=O)[C@H](N)CCCNC(=N)N)C(=O)N[C@H](Cc3ccccc3)C(=O)N[C@@H](CC(C)C)C(=O)N[C@@H](CCCNC(=N)N)C(=O)O)C2=O)C1=O)NC(=O)[C@@H](N)CCCCN)C(=O)O (some centres unmarked) [CP-0382] (HELM PEPTIDE1{[dR].R.P.[Hyp].G.F.C.[dF].L.R}|PEPTIDE2{K.C.P.[Hyp].G.F.S.P.L}|CHEM1{[O=C1CC([*:1])C(=O)N1CCCCCCN1C(=O)CC([*:2])C1=O]}$PEPTIDE1,CHEM1,7:R3-1:R1|PEPTIDE2,CHEM1,2:R3-1:R2$$$V2.0; N-terminus and C-terminus assumed)
BK1 antagonism [3]: BK1 antagonism was retained
IC50 ([3]; Table L): 631 nM
activity in the rat uterus BK2 receptor system [4]: substantial partial agonism
BK2 Rat Uterus pA2 [4]: Agonist

CC(C)C[C@H](NC(=O)[C@@H]1CCCN1C(=O)[C@H](CO)NC(=O)[C@H](Cc1ccccc1)NC(=O)CNC(=O)[C@@H]1C[C@@H](O)CN1C(=O)[C@@H]1CCCN1C(=O)[C@H](CS)NC(=O)[C@H](N)CCCNC(=N)N)C(=O)O [CP-0362] (HELM PEPTIDE1{[dR].C.P.[Hyp].G.F.S.P.L}$$$$V2.0; N-terminus and C-terminus assumed)
IC50 ([3]; Table K): 1000 nM
BK2 (RAT UTERUS) pA2 ([4]; Table K): Inactive

CC(C)C[C@H](NC(=O)[C@@H](Cc1ccccc1)NC(=O)[C@H](CO)NC(=O)[C@H](Cc1ccccc1)NC(=O)CNC(=O)[C@@H]1C[C@@H](O)CN1C(=O)[C@@H]1CCCN1C(=O)[C@H](CS)NC(=O)[C@H](N)CCCNC(=N)N)C(=O)N[C@@H](CCCNC(=N)N)C(=O)O [CP-0141] (HELM PEPTIDE1{[dR].C.P.[Hyp].G.F.S.[dF].L.R}$$$$V2.0)
Kb [1]: > 1000 nM
% REC MONOMER ([4]; Table C, rat uterus): 100%
Kb ([5]; Table B, read-out: pA2 GUINEA PIG ILEUM (converted)): 794 nM

CC(C)C[C@H](NC(=O)[C@@H]1CCCN1C(=O)[C@H](CO)NC(=O)[C@H](Cc1cccs1)NC(=O)CNC(=O)[C@@H]1CCCN1C(=O)[C@@H]1CCCN1C(=O)[C@H](CSC1CC(=O)N(CCCCCCN2C(=O)CC(SC[C@H](NC(=O)[C@H](Cc3ccccc3)NC(=O)CNC(=O)[C@@H]3C[C@@H](O)CN3C(=O)[C@@H]3CCCN3C(=O)[C@H](CCCNC(=N)N)NC(=O)[C@H](N)CCCNC(=N)N)C(=O)N[C@H](Cc3ccccc3)C(=O)N[C@@H](CC(C)C)C(=O)N[C@@H](CCCNC(=N)N)C(=O)O)C2=O)C1=O)NC(=O)[C@@H](N)CCCCN)C(=O)O (some centres unmarked) [CP-0383] (HELM PEPTIDE1{[dR].R.P.[Hyp].G.F.C.[dF].L.R}|PEPTIDE2{K.C.P.P.G.[O=C([C@H](Cc1cccs1)N[*:1])[*:2]].S.P.L}|CHEM1{[O=C1CC([*:1])C(=O)N1CCCCCCN1C(=O)CC([*:2])C1=O]}$PEPTIDE1,CHEM1,7:R3-1:R1|PEPTIDE2,CHEM1,2:R3-1:R2$$$V2.0)
BK1 antagonism [3]: BK1 antagonism was retained
IC50 ([3]; Table L): 15.8 nM
activity in the rat uterus BK2 receptor system [4]: substantial partial agonism
BK2 Rat Uterus pA2 [4]: Agonist
